Source: ChEMBL document CHEMBL3621157, “Design, synthesis and biological evaluation of novel 1,2,4-triazolo and 1,2,4-triazino[4,3-a]quinoxalines as potential anticancer and antimicrobial agents” (2015)
In brackets after ≈: the same amount, converted by molar mass.

How the values were obtained:
Type in all cases: functional
[1] = tested on: Staphylococcus aureus; assay: Antimicrobial activity against Staphylococcus aureus DSM 1104 incubated at 37 degC for 24 hrs by cup diffusion method
[2] = tested on: Bacillus subtilis; assay: Antimicrobial activity against Bacillus subtilis ATCC 6633 incubated at 37 degC for 24 hrs by cup diffusion method
[3] = tested on: Pseudomonas aeruginosa; assay: Antimicrobial activity against Pseudomonas aeruginosa ATCC 10145 incubated at 37 degC for 24 hrs by cup diffusion method
[4] = tested on: Escherichia coli; assay: Antimicrobial activity against Escherichia coli ATCC 11775 incubated at 37 degC for 24 hrs by cup diffusion method
[5] = tested on: Candida albicans; assay: Antimicrobial activity against Candida albicans DSM 70014 incubated at 37 degC for 48 hrs by cup diffusion method
[6] = tested on: Staphylococcus aureus; assay: Antimicrobial activity against Staphylococcus aureus DSM 1104 incubated for 24 hrs by two-fold serial broth dilution method; conditions: DSM 1104, 24 h
[7] = tested on: Staphylococcus aureus; assay: Antimicrobial activity against Staphylococcus aureus DSM 1104 incubated for 24 hrs followed by transfer of colonies to Muller-Hinton agar plate and measured after 18 hrs by two-fold serial broth dilution method
[8] = tested on: Bacillus subtilis; assay: Antimicrobial activity against Bacillus subtilis ATCC 6633 incubated for 24 hrs by two-fold serial broth dilution method; conditions: ATCC 6633, 24 h
[9] = tested on: Bacillus subtilis; assay: Antimicrobial activity against Bacillus subtilis ATCC 6633 incubated for 24 hrs followed by transfer of colonies to Muller-Hinton agar plate and measured after 18 hrs by two-fold serial broth dilution method
[10] = tested on: Pseudomonas aeruginosa; assay: Antimicrobial activity against Pseudomonas aeruginosa ATCC 10145 incubated for 24 hrs by two-fold serial broth dilution method; conditions: ATCC 10145, 24 h
[11] = tested on: Pseudomonas aeruginosa; assay: Antimicrobial activity against Pseudomonas aeruginosa ATCC 10145 incubated for 24 hrs followed by transfer of colonies to Muller-Hinton agar plate and measured after 18 hrs by two-fold serial broth dilution method
[12] = tested on: Escherichia coli; assay: Antimicrobial activity against Escherichia coli ATCC 11775 incubated for 24 hrs by two-fold serial broth dilution method; conditions: ATCC 11775, 24 h
[13] = tested on: Escherichia coli; assay: Antimicrobial activity against Escherichia coli ATCC 11775 incubated for 24 hrs followed by transfer of colonies to Muller-Hinton agar plate and measured after 18 hrs by two-fold serial broth dilution method
[14] = tested on: Candida albicans; assay: Antimicrobial activity against Candida albicans DSM 70014 incubated for 48 hrs by two-fold serial broth dilution method; conditions: DSM 70014, 48 h
[15] = tested on: Candida albicans; assay: Antimicrobial activity against Candida albicans DSM 70014 incubated for 48 hrs followed by transfer of colonies to Muller-Hinton agar plate and measured after 18 hrs by two-fold serial broth dilution method
[16] = tested on: NCI-H226; assay: Growth inhibition of human NCI-H226 cells at 10 uM incubated for 48 hrs by sulforhodamine B assay; conditions: NCI-H226, 48 h, read-out: GI
[17] = tested on: SNB-75; assay: Growth inhibition of human SNB75 cells at 10 uM incubated for 48 hrs by sulforhodamine B assay; conditions: SNB-75, 48 h, read-out: GI
[18] = tested on: A498; assay: Growth inhibition of human A498 cells at 10 uM incubated for 48 hrs by sulforhodamine B assay; conditions: A498, 48 h, read-out: GI
[19] = tested on: PC-3; assay: Growth inhibition of human PC3 cells at 10 uM incubated for 48 hrs by sulforhodamine B assay; conditions: PC-3, 48 h, read-out: GI
[20] = tested on: UO-31; assay: Growth inhibition of human UO31 cells at 10 uM incubated for 48 hrs by sulforhodamine B assay; conditions: UO-31, 48 h, read-out: GI
[21] = Growth inhibition of human HOP92 cells at 10 uM incubated for 48 hrs by sulforhodamine B assay; conditions: HOP-92, 48 h, read-out: GI

SMILES	inhibition zone (IZ) [1] [mm]	inhibition zone (IZ) [2] [mm]	inhibition zone (IZ) [3] [mm]	inhibition zone (IZ) [4] [mm]	inhibition zone (IZ) [5] [mm]	MIC [6] [µg/mL]	MBC [7] [µg/mL]	MIC [8] [µg/mL]	MBC [9] [µg/mL]	MIC [10] [µg/mL]	MBC [11] [µg/mL]	MIC [12] [µg/mL]	MBC [13] [µg/mL]	MIC [14] [µg/mL]	MFC [15] [µg/mL]	inhibition of growth at 10 µM [17] [%]	inhibition of growth at 10 µM [18] [%]	inhibition of growth at 10 µM [20] [%]	further results
c1ccc(Cc2nc3ccccc3n3cnnc23)cc1	17	12	14	12	17	50 (≈ 192 µM)	100 (≈ 384 µM)	50 (≈ 192 µM)	50 (≈ 192 µM)	50 (≈ 192 µM)	100 (≈ 384 µM)	25 (≈ 96 µM)	25 (≈ 96 µM)	100 (≈ 384 µM)	200 (≈ 768 µM)	23.5	38.7	22.7	inhibition of growth at 10 µM [16]: 15.5%; inhibition of growth at 10 µM [19]: 14.2%
O=[N+]([O-])c1ccc(-c2nnc3c(Cc4ccccc4)nc4ccccc4n23)cc1	14	12	12	14	15	50 (≈ 131 µM)	100 (≈ 262 µM)	100 (≈ 262 µM)	100 (≈ 262 µM)	50 (≈ 131 µM)	50 (≈ 131 µM)	100 (≈ 262 µM)	100 (≈ 262 µM)	25 (≈ 65.5 µM)	50 (≈ 131 µM)	–	–	–	–
Brc1ccc(C2=NN=C3C(Cc4ccccc4)=Nc4ccccc4N3C2)cc1	12	12	12	14	14	50 (≈ 116 µM)	50 (≈ 116 µM)	50 (≈ 116 µM)	50 (≈ 116 µM)	100 (≈ 233 µM)	100 (≈ 233 µM)	50 (≈ 116 µM)	50 (≈ 116 µM)	50 (≈ 116 µM)	50 (≈ 116 µM)	–	–	–	–
CCOC(=O)C/C(C)=N\Nc1nc2ccccc2nc1Cc1ccccc1	15	12	12	14	14	100 (≈ 276 µM)	100 (≈ 276 µM)	50 (≈ 138 µM)	50 (≈ 138 µM)	100 (≈ 276 µM)	100 (≈ 276 µM)	50 (≈ 138 µM)	100 (≈ 276 µM)	50 (≈ 138 µM)	100 (≈ 276 µM)	–	17.8	15.8	–
O=c1[nH]nc2c(Cc3ccccc3)nc3ccccc3n12	16	16	12	10	14	100 (≈ 362 µM)	200 (≈ 724 µM)	100 (≈ 362 µM)	200 (≈ 724 µM)	100 (≈ 362 µM)	100 (≈ 362 µM)	100 (≈ 362 µM)	100 (≈ 362 µM)	50 (≈ 181 µM)	100 (≈ 362 µM)	–	28.6	35.5	–
O=C(O)CCc1nnc2c(Cc3ccccc3)nc3ccccc3n12	13	12	12	15	16	25 (≈ 75.2 µM)	50 (≈ 150 µM)	12.5 (≈ 37.6 µM)	25 (≈ 75.2 µM)	25 (≈ 75.2 µM)	25 (≈ 75.2 µM)	12.5 (≈ 37.6 µM)	25 (≈ 75.2 µM)	50 (≈ 150 µM)	100 (≈ 301 µM)	17.7	–	12.2	inhibition of growth at 10 µM [21]: 18.9%
CCOC(=O)c1nnc2c(Cc3ccccc3)nc3ccccc3n12	14	13	10	12	15	50 (≈ 150 µM)	50 (≈ 150 µM)	50 (≈ 150 µM)	100 (≈ 301 µM)	100 (≈ 301 µM)	100 (≈ 301 µM)	50 (≈ 150 µM)	50 (≈ 150 µM)	25 (≈ 75.2 µM)	50 (≈ 150 µM)	10.3	–	15.1	–
CCOC(=O)Cc1nnc2c(Cc3ccccc3)nc3ccccc3n12	14	14	14	15	12	50 (≈ 144 µM)	100 (≈ 289 µM)	100 (≈ 289 µM)	100 (≈ 289 µM)	100 (≈ 289 µM)	100 (≈ 289 µM)	100 (≈ 289 µM)	100 (≈ 289 µM)	25 (≈ 72.2 µM)	25 (≈ 72.2 µM)	–	–	–	–
CC1(C)S[C@@H]2[C@H](NC(=O)[C@H](N)c3ccccc3)C(=O)N2[C@H]1C(=O)O [AMPICILLIN]	–	–	–	–	–	5 (≈ 14.3 µM)	–	12.5 (≈ 35.8 µM)	–	50 (≈ 143 µM)	–	10 (≈ 28.6 µM)	–	–	–	–	–	–	–
Clc1ccccc1C(c1ccccc1)(c1ccccc1)n1ccnc1 [CLOTRIMAZOLE]	–	–	–	–	–	–	–	–	–	–	–	–	–	5 (≈ 14.5 µM)	–	–	–	–	–
